Experimental data published in ChEMBL document CHEMBL1152394, “Antiproliferative bistramides from Trididemnum cyclops from Madagascar (1)” (J Nat Prod, 2009).

Tests used:
[1] = Antiproliferative activity against endothelial cells; format: cell-based; conditions: Endothelial cell
[2] = tested on: KB; test: Antiproliferative activity against human KB cells; format: functional, cell-based
[3] = tested on: P388; test: Antiproliferative activity against mouse P388 cells; format: functional, cell-based
[4] = tested on: A2780; test: Ratio of IC50 for human KB cells to IC50 for human A2780 cells; format: functional
[5] = tested on: P388; test: Ratio of IC50 for mouse P388 cells to IC50 for human A2780 cells; format: functional
[6] = tested on: A2780; test: Antiproliferative activity against human A2780 cells; format: functional, cell-based
[7] = tested on: A2780; test: Ratio of IC50 for endothelial cells to IC50 for human A2780 cells

| Structure (SMILES) | IC50 [1] [µM] | IC50 [2] [µM] | IC50 [3] [µM] | Ratio IC50 [4] | Ratio IC50 [5] | IC50 [6] [µM] | Ratio IC50 [7] |
| --- | --- | --- | --- | --- | --- | --- | --- |
| C/C=C/C(O)C/C=C/C[C@H](C)[C@@H](O)CC(=O)NC[C@H](O)[C@H](C)C(=O)NCCC[C@H]1O[C@@]2(CCC[C@@H](CC[C@H](C)/C=C(\C)C(C)=O)O2)CC[C@@H]1C (some centres undefined) | 0.022 | 0.045 | 0.02 | 10 | 10 | 0.34 | 10 |
| C/C=C/C(=O)C[C@H]1CC[C@H](C)[C@H](CC(=O)NC[C@H](O)[C@H](C)C(=O)NCCC[C@H]2O[C@@]3(CCC[C@H](CC[C@H](C)/C=C(\C)[C@H](C)O)O3)CC[C@@H]2C)O1 [BISTRAMIDE A] | 0.022 | 0.045 | 0.02 | 10 | 10 | 0.26 | 10 |
